“And” between values parts separate entries of the source, which are not always exact repeats. Equal entries are not always repeated. Inconclusive results and toxic doses are left out. How the source made its calls: active means survival T/C of 150% or more; inactive means T/C below 125% in these data.
Test system: P388 leukemia ip, CD2F1 mice, survival T/C
Experiment: NCI In Vivo Anticancer Drug Screen. Data for tumor model P388 Leukemia (intraperitoneal) in CD2F1 (CDF1) mice
Conditions: endpoint: median survival time, higher = longer survival
Outline: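 Mice carrying the transplanted tumor received test compound or vehicle. Survival was recorded in each group, and the value is the treated-group measurement divided by that of the vehicle-treated control group.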

[1] = dose: 50.0 mg/kg/injection, schedule: Q01DX005 (ip), vehicle: saline with Tween-80
[2] = dose: 100.0 mg/kg/injection, schedule: Q01DX005 (ip), vehicle: saline with Tween-80
[3] = dose: 200.0 mg/kg/injection, schedule: Q01DX005 (ip), vehicle: saline with Tween-80
[4] = dose: 50.0 mg/kg/injection, schedule: Q01DX001 (ip), vehicle: saline with Tween-80
[5] = dose: 100.0 mg/kg/injection, schedule: Q01DX001 (ip), vehicle: saline with Tween-80
[6] = dose: 25.0 mg/kg/injection, schedule: Q01DX005 (ip), vehicle: Klucel (hydroxypropylcellulose) (HPC)
[7] = dose: 50.0 mg/kg/injection, schedule: Q01DX005 (ip), vehicle: Klucel (hydroxypropylcellulose) (HPC)
[8] = dose: 100.0 mg/kg/injection, schedule: Q01DX005 (ip), vehicle: Klucel (hydroxypropylcellulose) (HPC)
[9] = dose: 200.0 mg/kg/injection, schedule: Q01DX005 (ip), vehicle: Klucel (hydroxypropylcellulose) (HPC)

Measured: T/C

COC(=O)CC1(C(=O)OC)Oc2ccc(Br)cc2C(=O)N1c1cccc(Cl)c1Cl (configuration not stated)
inactive: [1] 100 % of control | [2] 91 % of control | [3] 100 % of control

NC(=NCc1ccccc1)c1ccc(N=C(N)c2ccc(C(N)=Nc3ccc(C(N)=NCc4ccccc4)cc3)cc2)cc1
inactive: dose: 5.0 mg/kg/injection, schedule: Q01DX009 (ip), vehicle: saline sonified 118 % of control | dose: 6.6 mg/kg/injection, schedule: Q01DX009 (ip), vehicle: saline 109 % of control | dose: 10.0 mg/kg/injection, schedule: Q01DX009 (ip), vehicle: saline 122 % of control | dose: 10.0 mg/kg/injection, schedule: Q04DX003 (ip), vehicle: saline with Tween-80 104 % of control | dose: 20.0 mg/kg/injection, schedule: Q04DX003 (ip), vehicle: saline with Tween-80 95 % of control

CC1CN2COC(=S)SSSSC(=S)OCN3CC(C)N(COC(=S)SSSSC(=S)OCN1CC2C)CC3C (configuration not stated)
inactive: [1] 99 % of control | [2] 103 % of control | [3] 106 % of control

C=CC1O[C@H](C)C[C@H](C)O1 (some centres not stated)
inactive: dose: 60.0 mg/kg/injection, schedule: Q01DX005 (ip), vehicle: saline 109 % of control | dose: 120.0 mg/kg/injection, schedule: Q01DX005 (ip), vehicle: saline 100 % of control | dose: 240.0 mg/kg/injection, schedule: Q01DX005 (ip), vehicle: saline 104 % of control

O=P(c1ccccc1)(c1ccccc1)c1ccccc1.O=P(c1ccccc1)(c1ccccc1)c1ccccc1.O=P(c1ccccc1)(c1ccccc1)c1ccccc1.O=P(c1ccccc1)(c1ccccc1)c1ccccc1.[O-][Cl+3]([O-])([O-])O.[Zn+2]
inactive: [4] 104 % of control | [5] 103 % of control and 90 % of control

CCOC(=O)C1CCC/C1=N/Nc1ccc([N+](=O)[O-])cc1[N+](=O)[O-] (configuration not stated)
inactive: dose: 100.0 mg/kg/injection, schedule: Q01DX001 (ip), vehicle: Klucel (hydroxypropylcellulose) (HPC) 94 % of control | dose: 200.0 mg/kg/injection, schedule: Q01DX001 (ip), vehicle: Klucel (hydroxypropylcellulose) (HPC) 93 % of control | dose: 400.0 mg/kg/injection, schedule: Q01DX001 (ip), vehicle: Klucel (hydroxypropylcellulose) (HPC) 93 % of control

O=CN1CCN(c2ccc([N+](=O)[O-])c3no[n+]([O-])c23)CC1
inactive: dose: 1.87 mg/kg/injection, schedule: Q01DX009 (ip), vehicle: saline 107 % of control | dose: 1.87 mg/kg/injection, schedule: Q01DX009 (ip), vehicle: suspension in saline 94 % of control | dose: 3.75 mg/kg/injection, schedule: Q01DX009 (ip), vehicle: saline 92 % of control | dose: 3.75 mg/kg/injection, schedule: Q01DX009 (ip), vehicle: suspension in saline 113 % of control | dose: 7.5 mg/kg/injection, schedule: Q01DX009 (ip), vehicle: saline 86 % of control | dose: 7.5 mg/kg/injection, schedule: Q01DX009 (ip), vehicle: suspension in saline 116 % of control | dose: 15.0 mg/kg/injection, schedule: Q01DX009 (ip), vehicle: saline 91 % of control | dose: 15.0 mg/kg/injection, schedule: Q01DX009 (ip), vehicle: suspension in saline 116 % of control

N#CC(OC(=O)c1ccccc1)C(OC(=O)c1ccccc1)C(COC(=O)c1ccccc1)OC(=O)c1ccccc1 (configuration not stated)
inactive: [1] 99 % of control and 92 % of control | [2] 94 % of control | [3] 99 % of control

C=C1C(=O)OC2/C=C(\C)C(O)C/C=C(/C)C(OC(=O)/C(C)=C\C)C(O)C12 (configuration not stated)
inactive: dose: 6125.0 micrograms/kg/injection, schedule: Q01DX005 (ip), vehicle: Klucel (hydroxypropylcellulose) (HPC) 110 % of control | dose: 12250.0 micrograms/kg/injection, schedule: Q01DX005 (ip), vehicle: Klucel (hydroxypropylcellulose) (HPC) 115 % of control | dose: 24500.0 micrograms/kg/injection, schedule: Q01DX005 (ip), vehicle: Klucel (hydroxypropylcellulose) (HPC) 109 % of control | dose: 49000.0 micrograms/kg/injection, schedule: Q01DX005 (ip), vehicle: Klucel (hydroxypropylcellulose) (HPC) 114 % of control

O=C1C=CC(=O)c2c(O)cccc21
inactive: dose: 0.39 mg/kg/injection, schedule: Q01DX009 (ip), vehicle: saline with Tween-80 93 % of control | dose: 0.75 mg/kg/injection, schedule: Q01DX009 (ip), vehicle: saline with Tween-80 95 % of control | dose: 0.78 mg/kg/injection, schedule: Q01DX009 (ip), vehicle: saline with Tween-80 93 % of control | dose: 1.5 mg/kg/injection, schedule: Q01DX009 (ip), vehicle: saline with Tween-80 90 % of control | dose: 1.56 mg/kg/injection, schedule: Q01DX009 (ip), vehicle: saline with Tween-80 102 % of control | dose: 3.13 mg/kg/injection, schedule: Q01DX009 (ip), vehicle: saline with Tween-80 90 % of control

O=C(Cc1ccccc1)NC1C(=O)N2c3c(CO)cccc3OCC12 (configuration not stated)
inactive: [4] 100 % of control | [5] 90 % of control | dose: 200.0 mg/kg/injection, schedule: Q01DX001 (ip), vehicle: saline with Tween-80 94 % of control

CN1C(=O)c2ccccc2NC12CCN(Cc1ccccc1)CC2
inactive: [6] 103 % of control | [7] 95 % of control | [8] 97 % of control

Cc1ccccc1N=C(N)Nc1ccccc1C
inactive: dose: 2.5 mg/kg/injection, schedule: Q01DX009 (ip), vehicle: saline with Tween-80 95 % of control | dose: 5.0 mg/kg/injection, schedule: Q01DX009 (ip), vehicle: saline with Tween-80 100 % of control | dose: 10.0 mg/kg/injection, schedule: Q01DX009 (ip), vehicle: saline with Tween-80 100 % of control

CCCCCCCOc1ccc(C(=O)O)cc1
inactive: dose: 12.5 mg/kg/injection, schedule: Q01DX009 (ip), vehicle: Klucel (hydroxypropylcellulose) (HPC) 105 % of control | dose: 25.0 mg/kg/injection, schedule: Q01DX009 (ip), vehicle: Klucel (hydroxypropylcellulose) (HPC) 111 % of control | dose: 50.0 mg/kg/injection, schedule: Q01DX009 (ip), vehicle: Klucel (hydroxypropylcellulose) (HPC) 107 % of control

O=C(Nc1ccc(C2=NCCN2)c(O)c1)c1ccc(C(=O)Nc2ccc(C3=NCCN3)c(O)c2)cc1
inactive: [1] 99 % of control | [2] 103 % of control | [3] 107 % of control

O=C(O)/C(=C/c1ccc([N+](=O)[O-])cc1)c1ccccc1
inactive: [7] 102 % of control | [8] 95 % of control | [9] 102 % of control

CN(C)CCNc1cccc2oc3ccc(O)cc3c(=O)c12
inactive: [6] 101 % of control | [7] 107 % of control | [8] 110 % of control | [9] 114 % of control

O=C1c2cccc(NCCNCCO)c2C(=O)c2cccc(Cl)c21
inactive: dose: 5.0 mg/kg/injection, schedule: Q01DX009 (ip), vehicle: acid diluted with saline 98 % of control | dose: 10.0 mg/kg/injection, schedule: Q01DX009 (ip), vehicle: acid diluted with saline 113 % of control | dose: 20.0 mg/kg/injection, schedule: Q01DX009 (ip), vehicle: acid diluted with saline 115 % of control | dose: 40.0 mg/kg/injection, schedule: Q01DX009 (ip), vehicle: acid diluted with saline 113 % of control | dose: 80.0 mg/kg/injection, schedule: Q01DX009 (ip), vehicle: acid diluted with saline 124 % of control | dose: 160.0 mg/kg/injection, schedule: Q01DX009 (ip), vehicle: acid diluted with saline 120 % of control

O=c1[nH]cnc2[nH]cc([N+](=O)[O-])c12
inactive: dose: 6.25 mg/kg/injection, schedule: Q01DX009 (ip), vehicle: saline 102 % of control | dose: 12.5 mg/kg/injection, schedule: Q01DX009 (ip), vehicle: saline 107 % of control | dose: 25.0 mg/kg/injection, schedule: Q01DX009 (ip), vehicle: saline 102 % of control | dose: 50.0 mg/kg/injection, schedule: Q01DX009 (ip), vehicle: saline 103 % of control
